According to ChEMBL document CHEMBL5150022, “Small Molecule Inhibitors of Lymphocyte Perforin as Focused Immunosuppressants for Infection and Autoimmunity” (J Med Chem, 2022):

What was measured:
[1] = molecular target: Perforin-1 (Mus musculus) (UniProt P10820); assay: Inhibition of recombinant Perforin-1 (mouse)
[2] = molecular target: Perforin-1 (Mus musculus) (UniProt P10820); assay: Inhibition of Perforin-1 in human Jurkat cells

Chain of Perforin-1 (Mus musculus) (P10820 whole entry, looked up): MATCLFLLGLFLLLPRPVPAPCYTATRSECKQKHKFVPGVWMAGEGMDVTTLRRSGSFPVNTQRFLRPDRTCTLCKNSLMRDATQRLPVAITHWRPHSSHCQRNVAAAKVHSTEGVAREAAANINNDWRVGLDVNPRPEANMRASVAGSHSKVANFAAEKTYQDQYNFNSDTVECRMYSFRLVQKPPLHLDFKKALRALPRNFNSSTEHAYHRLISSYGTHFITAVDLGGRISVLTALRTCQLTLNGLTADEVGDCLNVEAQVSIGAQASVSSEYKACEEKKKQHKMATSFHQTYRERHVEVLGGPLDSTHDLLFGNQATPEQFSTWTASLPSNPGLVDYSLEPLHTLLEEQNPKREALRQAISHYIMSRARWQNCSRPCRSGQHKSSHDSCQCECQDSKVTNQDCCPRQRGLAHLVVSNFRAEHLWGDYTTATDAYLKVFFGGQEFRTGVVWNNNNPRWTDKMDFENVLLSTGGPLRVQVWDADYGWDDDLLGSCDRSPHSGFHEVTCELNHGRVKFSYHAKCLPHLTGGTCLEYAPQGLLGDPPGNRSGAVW

`O=C1NCCc2ccc(-c3ccc(-c4cncc(NS(=O)(=O)c5ccc(F)cc5F)c4)s3)cc21` was tested, and the IC50 [1] was > 20 µM.

`O=C1NCCc2cc(-c3ccc(-c4cncc(NS(=O)(=O)c5ccc(F)cc5F)c4)s3)ccc21` was tested, and the IC50 [1] was > 20 µM.

For `CN1CCc2cc(-c3ccc(-c4cncc(NS(=O)(=O)c5ccc(F)cc5F)c4)s3)ccc2C1=O`, the IC50 [1] was > 20 µM.

For `Cc1ccc2c(c1)C(c1ccc(-c3cncc(NS(=O)(=O)c4ccc(F)cc4F)c3)s1)N(C)C2=O` (stereo not given), the IC50 [1] was > 20 µM.

With `Cc1cc2c(c(=S)[nH]1)C(=O)O/C2=C\c1ccc(C)o1` the IC50 [2] was 2.7 µM.
